Results: patent publication US20240122923A1, “METHODS OF TREATING HIDRADENITIS SUPPURATIVA” (AbbVie Inc., priority 2022, published 2024)
“And” between values parts separate entries of the source, which are not always exact repeats. Identical values can stand only once.

Test system: adult human subjects with moderate to severe Hidradenitis Suppurativa (HS)
Assay: Phase 2 randomized, double-blind, placebo-controlled study of upadacitinib, efficacy incl. post-hoc analysis through week 40
Type: in vivo
Conditions: for HiSCR at Week 12, % (N), stratum TNF-IR: N=12; for HiSCR at Week 12, % (N), stratum TNF-Naïve: N=35; for subjects achieving HiSCR at Week 12, n (%): upadacitinib 30 mg QD oral, N=47; for subjects achieving Pain NRS30 at Week 12 among subjects with Baseline NRS ≥ 3, n (%): upadacitinib 30 mg QD, N=33
From the text: This study was a Phase 2, multicenter, randomized, double-blind, parallel-group, placebo-controlled study to evaluate the efficacy and safety of upadacitinib in adult human subjects with moderate to severe Hidradenitis Suppurativa (HS).
The duration of the study was 57 weeks, including an approximately 35-day screening period followed by a 48-week double-blinded treatment period and a 30-day follow-up visit after the last dose of study drug. Subjects were randomized in a 2:1 ratio to 1 of the 2 arms as shown below: • Upadacitinib 30 mg once daily (QD) (N=40): Daily oral doses of upadacitinib 30 mg from the Baseline visit through Period 1 and Period 2. • Placebo (N=20): Placebo for upadacitinib from the Baseline visit up to the Week 12 visit (Period 1). At Week 12, subjects were switched to blinded upadacitinib 15 mg QD through Period 2.
The primary objective of this study was to assess the efficacy and safety of upadacitinib 30 mg QD in adult subjects with moderate to severe HS. The primary efficacy objective was assessed based on the achievement of HiSCR after 12 weeks treatment.
The primary endpoint was Hidradenitis Suppurativa Clinical Response (HiSCR) at Week 12, where HiSCR is defined as at least 50% reduction in the total abscess and inflammatory nodule (AN) count with no increase in abscess count and no increase in draining fistula count relative to Baseline.
The secondary endpoint was Pain Numerical Rating Scale (NRS30) at Week 12: the achievement of at least 30% reduction and at least 1 unit reduction from Baseline in NRS30 in Patient's Global Assessment of Skin Pain (PGA Skin Pain) at Week 12, among subjects with Baseline NRS≥3.
The following additional efficacy endpoints were evaluated: • 1. Experience of flare, defined as an increase in AN count of at least 25% with a minimum increase of 2 relative to Baseline • 2. Change from Baseline in Dermatology Life Quality Index (DLQI) • 3. Change from baseline in Hidradenitis Suppurativa Symptom Assessment (HSSA) • 4. Change from baseline in HS-related swelling, assessed based on the HSSA • 5. Change from baseline in HS-related odor, assessed based on the HSSA • 6. Change from baseline in HS-related worst drainage, assessed based on the HSSA
For the primary and secondary endpoints, comparisons of upadacitinib vs. placebo were made with 3 different analysis strategies, as summarized in Table 1 below:
For the additional endpoints, comparisons were made for upadacitinib vs. historical reference value of placebo, and upadacitinib vs. in-trial placebo subjects.
For categorical variables, the primary approach to handle missing data was Non-Responder Imputation [NRI] incorporating Multiple Imputation [MI]. For continuous variables, missing data was handled by Mixed-effect Model Repeat Measurement (MMRM). Missing data for long-term efficacy in Period 2 were handled based on the observed case (OC).
A post-hoc efficacy assessment through week 40 was performed in the study of Example 1. The analysis included the proportion of patients achieving ≥75% and ≥90% reduction from baseline in AN count with no increase in abscess or draining fistula count (HiSCR 75 and HiSCR 90, respectively) and the proportion of patients achieving ≥55% reduction in International HS Severity Score System endpoint (IHS4-55), which dynamically assesses inflammatory nodules, abscesses, and draining tunnels.

[1] = UPA 30 mg, NRI-C, listed as UPA
[2] = UPA 30 mg, analysis vs historical reference value of PBO
[3] = UPA 30 mg, analysis vs in-trial PBO
[4] = Week 12, UPA 30 mg, Observed Case, n=39
[5] = Week 40, PBO/UPA 15 mg (switched at week 12), NRI-C, n=19
[6] = Week 40, UPA 30 mg/UPA 30 mg, NRI-C, n=47
[7] = Week 40, UPA 30 mg/UPA 30 mg, Observed Case, n=29

CC[C@@H]1CN(C(=O)NCC(F)(F)F)C[C@@H]1c1cnc2cnc3[nH]ccc3n12 [upadacitinib]
HiSCR at Week 12, % (N), stratum TNF-IR (UPA 30 mg, NRI-C): 41.7% | HiSCR at Week 12, % (N), stratum TNF-IR [1]: 41.7% (N = 12) | HiSCR at Week 12, % (N), stratum Hurley Stage (III) (UPA 30 mg, NRI-C, N=23): 39.1% (N = 23) | HiSCR at Week 12, % (N), stratum Hurley Stage (<III) (UPA 30 mg, NRI-C, N=24): 37.5% (N = 24) | HiSCR at Week 12, % (N), stratum TNF-Naïve (UPA 30 mg, NRI-C): 37.1% | HiSCR at Week 12, % (N), stratum TNF-Naïve [1]: 37.1% (N = 35) | Change in DLQI at Week 12, LS Mean (SE) [2]: −2.4 (1.05) | Change in HSSA odor at Week 12, LS Mean (SE) [2]: -1.2 | Change in HSSA swelling at Week 12, LS Mean (SE) [2]: -0.931 | Change in HSSA total symptom at Week 12, LS Mean (SE) [2]: -0.969 | Change in HSSA worst drainage at Week 12, LS Mean (SE) [2]: −1.131 (0.31) | Change in DLQI at Week 12, LS Mean (SE) [3]: -2.4 | Change in HSSA odor at Week 12, LS Mean (SE) [3]: −1.171 (0.36) | Change in HSSA swelling at Week 12, LS Mean (SE) [3]: −0.922 (0.34) | Change in HSSA total symptom at Week 12, LS Mean (SE) [3]: −1.034 (0.27) | Change in HSSA worst drainage at Week 12, LS Mean (SE) [3]: −1.259 (0.30) | Patients achieving HiSCR 90, n (%) (Week 12, UPA 30 mg, NRI-C, n=47, listed as UPA): 8.5% and 4 (8.5)^‡ % | Patients achieving HiSCR 75, n (%) [4]: 10 (25.6) % | Patients achieving HiSCR 90, n (%) [4]: 4 (10.3) % | Patients achieving HiSCR, n (%) [4]: 18 (46.2) % | Patients achieving IHS4-55, n (%) [4]: 19 (48.7) % | Patients achieving HiSCR 75, n (%) [5]: 7 (36.8) % | Patients achieving HiSCR 90, n (%) [5]: 4 (21.1) % | Patients achieving HiSCR, n (%) [5]: 10 (52.6) % | Patients achieving IHS4-55, n (%) [5]: 12 (63.2) % | Patients achieving IHS4-55, n (%) (Week 40, PBO/UPA 15 mg (switched at week 12), Observed Case, n=14): 85.7% | Patients achieving IHS4-55, n (%) (Week 40, PBO/UPA 15 mg (switched at week 12), Observed Case, n=14, listed as UPA): 12 (85.7) % | Patients achieving HiSCR 75, n (%) [6]: 18 (38.3) % | Patients achieving HiSCR 90, n (%) [6]: 9 (19.1) % | Patients achieving HiSCR, n (%) [6]: 22 (46.8) % | Patients achieving IHS4-55, n (%) [6]: 21 (44.7) % | Patients achieving HiSCR 75, n (%) [7]: 18 (62.1) % | Patients achieving IHS4-55, n (%) [7]: 72.4% | Patients achieving IHS4-55, n (%) (Week 40, UPA 30 mg/UPA 30 mg, Observed Case, n=29, listed as UPA): 21 (72.4) % | subjects achieving HiSCR at Week 12, n (%) (NRI-C): 38.3% | subjects achieving HiSCR at Week 12, n (%) (NRI-C, listed as Upadacitinib): 18 (38.3) % | subjects achieving Pain NRS30 at Week 12 among subjects with Baseline NRS ≥ 3, n (%) (NRI-C): 36.4% | subjects achieving Pain NRS30 at Week 12 among subjects with Baseline NRS ≥ 3, n (%) (NRI-C, listed as UPA): 12 (36.4%) | subjects achieving Pain NRS30 at Week 12 among subjects with Baseline NRS ≥ 3, n (%) (NRI-C, listed as Upadacitinib): 12 (36.4) %
